6 compounds from patent US20050107386A1, “Methods of treating diseases and disorders by targeting multiple kinases” (priority 2003, published 2005) can be followed below.

One assay concerns the target IGF-1R(h) (Homo sapiens, UniProt P08069). In words: IGF-1R(h) kinase assay. Format: biochemical. As to conditions: 3 μM; percent of control kinase activity. As to the method: (§1) Six compounds (presumptive single agents) were tested against a panel of 50 kinases. The results are presented in Table 2; numbers for each kinase indicate the percent of control kinase activity in the presence of a 3μM concentration of the indicated agent.
(§2) Agents that target two or more different kinases are useful in the methods of the invention as described elsewhere herein. Such compounds may be identified, and their effect on certain kinases may be identified, using the assays briefly described below in Examples 4-83. Each of these assays was carried out as described in Davies et al., Biochem. J., 351:95-105 (2000). All assays were carried out at 10 μM ATP unless otherwise noted.
In a final reaction volume of 25 μl, IGF-IR (h) (5-10 mU) is incubated with 50 mM Tris pH 7.5, 0.1 mM EGTA, 0.1 mM NaVanadate, 0.1% β-mercaptoethanol, 250 μM […] (SEQ ID NO:16), 10 mM MnCl2, 10 mM MgAcetate and [γ-^33P-ATP] (specific activity approx. 500 cpm/pmol, concentration as required). The reaction is initiated by the addition of Mg^2+ [γ-^33P-ATP]. After incubation for 40 minutes at room temperature, the reaction is stopped by the addition of 5 μl of a 3% phosphoric acid solution. 10 μl of the reaction is then spotted onto a P30 filtermat and washed three times for 5 minutes in 75 mM phosphoric acid and once in methanol prior to drying and scintillation counting.

The target in another assay is Blk(m) (Mus musculus, UniProt P16277). Description: Blk(m) kinase assay. The note with it: 3 μM; percent of control kinase activity. The class given is biochemical. As to the method:
as §1, §2
(§3) In a final reaction volume of 25 μl, Blk (m) (5-10 mU) is incubated with 50 mM Tris pH 7.5, 0.1 mM EGTA, 0.1 mM NaVanadate, 0.1% β-mercaptoethanol, 0.1 mg/ml poly(Glu, Tyr) 4:1, 10 mM MgAcetate and [γ-^33P-ATP] (specific activity approx. 500 cpm/pmol, concentration as required). The reaction is initiated by the addition of Mg^2+ [γ-^33P-ATP]. After incubation for 40 minutes at room temperature, the reaction is stopped by the addition of 5 μl of a 3% phosphoric acid solution. 10 μl of the reaction is then spotted onto a Filtermat A and washed three times for 5 minutes in 75 mM phosphoric acid and once in methanol prior to drying and scintillation counting.

Another assay addresses Rsk1(h) (Homo sapiens, UniProt Q15418). In words: Rsk1(h) kinase assay. Format: biochemical. The note with it: for Inhibitory activity (% of control), Rsk1(h): 3 μM, percent of control kinase activity.
The next assay addresses FGFR3(h) (Homo sapiens, UniProt P22607). In words: FGFR3(h) kinase assay. Format: biochemical. The note with it: 3 μM; percent of control kinase activity. As to the method: as §1, §2
as §3, with “FGFR3 (h)” for “Blk (m)”, “4:1, 10 mM MnCl2,” for “4:1,”

In a further assay the target is CDK1/cyclinB(h) (Homo sapiens, UniProt P06493). Description: CDK1/cyclinB(h) kinase assay. The class given is biochemical. The note with it: for Inhibitory activity (% of control), CDK1/cyclinB(h): 3 μM, percent of control kinase activity. As to the method: as §1, §2
(§4) In a final reaction volume of 25 μl, CDK1/cyclinB (h) (5-10 mU) is incubated with 8 mM MOPS pH 7.0, 0.2 mM EDTA, 0.1 mg/ml histone H1, 10 mM MgAcetate and [γ-^33p-ATP] (specific activity approx. 500 cpm/pmol, concentration as required). The reaction is initiated by the addition of Mg^2+ [γ-33 P-ATP]. After incubation for 40 minutes at room temperature, the reaction is stopped by the addition of 5 μl of a 3% phosphoric acid solution. 10 μl of the reaction is then spotted onto a P30 filtermat and washed three times for 5 minutes in 75 mM phosphoric acid and once in methanol prior to drying and scintillation counting.

The target of a further assay is CK2(h) (Homo sapiens, UniProt P68400). In words: CK2(h) kinase assay. Format: biochemical. The note with it: 3 μM; percent of control kinase activity. As to the method:
as §1, §2
(§5) In a final reaction volume of 25 μl, CK2(h) (5-10 mU) is incubated with 20 mM Hepes pH 7.6, 0.15 M NaCl, 0.1 mM EDTA, 5 mM DTT, 0.1% Triton X-100, 165 μM […] (SEQ ID NO:6), 10 mM MgAcetate and [γ-^33P-ATP] (specific activity approx. 500 cpm/pmol, concentration as required). The reaction is initiated by the addition of Mg^2+ [γ-^33P-ATP]. After incubation for 40 minutes at room temperature, the reaction is stopped by the addition of 5 μl of a 3% phosphoric acid solution. 10 μl of the reaction is then spotted onto a P30 filtermat and washed three times for 5 minutes in 75 mM phosphoric acid and once in methanol prior to drying and scintillation counting.

The next assay relates to AMPK(r). Description: AMPK(r) kinase assay. The class given is biochemical, rat. The note with it: 3 μM; percent of control kinase activity. As to the method: as §1, §2
as §5, with “AMPK(r)” for “CK2(h)”, “50” for “20”, “7.4, 1” for “7.6, 0.15 M NaCl, 0.1 mM EDTA, 5”, “0.02% Brij-35, 200 μM AMP, 200” for “0.1% Triton X-100, 165”, “NO:4),” for “NO:6),”, “(Specific” for “(specific”

The next assay concerns the target PAK2(h) (Homo sapiens, UniProt Q13177). In words: PAK2(h) kinase assay. The class given is biochemical. The note with it: 3 μM; percent of control kinase activity. As to the method:
as §1, §2
as §4, with “PAK2(h)” for “CDK1/cyclinB (h)”, “30 μM […] (SEQ ID NO:8),” for “0.1 mg/ml histone H1,”, “[γ-^33P-ATP]” for “[γ-^33p-ATP]”, “[γ-^33P-ATP].” for “[γ-33 P-ATP].”

IGF-1R(h), sequence (P08069 31-1367): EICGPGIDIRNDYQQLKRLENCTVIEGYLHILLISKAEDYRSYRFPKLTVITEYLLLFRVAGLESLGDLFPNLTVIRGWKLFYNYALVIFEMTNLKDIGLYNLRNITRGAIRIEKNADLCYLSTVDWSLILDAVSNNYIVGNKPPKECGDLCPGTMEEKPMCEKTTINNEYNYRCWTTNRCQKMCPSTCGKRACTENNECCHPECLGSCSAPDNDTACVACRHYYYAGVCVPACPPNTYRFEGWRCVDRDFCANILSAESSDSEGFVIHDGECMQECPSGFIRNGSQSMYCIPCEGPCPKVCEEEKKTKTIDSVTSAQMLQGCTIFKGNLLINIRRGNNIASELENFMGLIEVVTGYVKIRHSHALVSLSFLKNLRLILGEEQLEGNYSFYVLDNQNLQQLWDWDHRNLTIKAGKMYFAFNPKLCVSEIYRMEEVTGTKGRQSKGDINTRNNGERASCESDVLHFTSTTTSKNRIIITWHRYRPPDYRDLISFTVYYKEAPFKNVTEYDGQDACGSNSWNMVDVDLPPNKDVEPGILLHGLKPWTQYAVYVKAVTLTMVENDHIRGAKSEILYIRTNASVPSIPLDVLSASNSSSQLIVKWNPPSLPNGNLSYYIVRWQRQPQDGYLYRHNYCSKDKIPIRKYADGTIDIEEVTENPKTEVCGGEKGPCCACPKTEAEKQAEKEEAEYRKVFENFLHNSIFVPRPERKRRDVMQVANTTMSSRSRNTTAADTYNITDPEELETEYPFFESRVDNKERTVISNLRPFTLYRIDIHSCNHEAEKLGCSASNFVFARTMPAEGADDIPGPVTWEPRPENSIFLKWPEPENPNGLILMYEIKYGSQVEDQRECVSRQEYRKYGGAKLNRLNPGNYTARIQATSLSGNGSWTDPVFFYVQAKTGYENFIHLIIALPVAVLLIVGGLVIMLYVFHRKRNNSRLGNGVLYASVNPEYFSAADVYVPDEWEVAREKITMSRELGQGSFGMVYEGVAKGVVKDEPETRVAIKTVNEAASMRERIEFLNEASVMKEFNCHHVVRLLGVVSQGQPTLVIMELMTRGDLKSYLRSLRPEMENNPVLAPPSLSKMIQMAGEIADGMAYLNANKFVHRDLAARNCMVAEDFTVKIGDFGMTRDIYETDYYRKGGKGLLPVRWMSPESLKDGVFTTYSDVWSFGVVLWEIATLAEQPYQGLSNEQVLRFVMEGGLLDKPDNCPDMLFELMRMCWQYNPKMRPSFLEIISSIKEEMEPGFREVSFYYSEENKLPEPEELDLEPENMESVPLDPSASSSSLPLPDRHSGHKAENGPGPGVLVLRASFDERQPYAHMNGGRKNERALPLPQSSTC
Rsk1(h), sequence (Q15418 whole entry): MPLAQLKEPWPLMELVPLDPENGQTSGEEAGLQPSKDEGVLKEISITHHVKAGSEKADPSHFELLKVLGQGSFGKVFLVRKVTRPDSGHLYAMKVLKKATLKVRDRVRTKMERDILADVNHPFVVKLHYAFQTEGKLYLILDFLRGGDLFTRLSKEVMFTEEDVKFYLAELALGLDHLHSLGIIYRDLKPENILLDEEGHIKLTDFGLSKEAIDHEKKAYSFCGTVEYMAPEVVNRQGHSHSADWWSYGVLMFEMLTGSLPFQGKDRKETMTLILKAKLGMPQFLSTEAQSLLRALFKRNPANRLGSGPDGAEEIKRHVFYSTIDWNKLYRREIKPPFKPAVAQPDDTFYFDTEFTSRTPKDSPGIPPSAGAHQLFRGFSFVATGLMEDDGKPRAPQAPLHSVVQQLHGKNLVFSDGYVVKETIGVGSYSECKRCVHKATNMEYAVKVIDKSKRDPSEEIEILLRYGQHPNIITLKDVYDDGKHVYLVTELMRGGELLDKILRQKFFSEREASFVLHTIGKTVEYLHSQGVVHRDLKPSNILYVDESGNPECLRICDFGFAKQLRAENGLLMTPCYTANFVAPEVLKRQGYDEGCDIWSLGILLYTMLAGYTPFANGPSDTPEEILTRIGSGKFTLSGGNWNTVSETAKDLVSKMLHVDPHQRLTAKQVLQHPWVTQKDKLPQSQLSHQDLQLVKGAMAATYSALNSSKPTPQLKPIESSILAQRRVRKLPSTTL
CK2(h), sequence (P68400 whole entry): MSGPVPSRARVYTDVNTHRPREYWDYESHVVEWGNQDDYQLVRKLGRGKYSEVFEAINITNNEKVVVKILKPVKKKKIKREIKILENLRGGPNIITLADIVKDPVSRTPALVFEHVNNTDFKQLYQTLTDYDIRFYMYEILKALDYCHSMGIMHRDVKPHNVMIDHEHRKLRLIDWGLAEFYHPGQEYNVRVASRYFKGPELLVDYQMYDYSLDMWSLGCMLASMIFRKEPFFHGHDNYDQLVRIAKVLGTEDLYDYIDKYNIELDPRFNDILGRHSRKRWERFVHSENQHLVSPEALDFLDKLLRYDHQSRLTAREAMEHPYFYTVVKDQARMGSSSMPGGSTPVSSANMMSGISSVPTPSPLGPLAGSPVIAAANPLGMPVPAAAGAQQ
CK2(h), sequence (P67870 whole entry partner): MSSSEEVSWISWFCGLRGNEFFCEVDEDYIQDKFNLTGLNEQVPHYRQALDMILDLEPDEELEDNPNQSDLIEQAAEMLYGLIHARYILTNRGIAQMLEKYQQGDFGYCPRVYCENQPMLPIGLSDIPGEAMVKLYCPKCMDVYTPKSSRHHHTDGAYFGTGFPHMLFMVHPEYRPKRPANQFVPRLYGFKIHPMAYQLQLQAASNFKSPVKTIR
CDK1/cyclinB(h), sequence (P06493 whole entry): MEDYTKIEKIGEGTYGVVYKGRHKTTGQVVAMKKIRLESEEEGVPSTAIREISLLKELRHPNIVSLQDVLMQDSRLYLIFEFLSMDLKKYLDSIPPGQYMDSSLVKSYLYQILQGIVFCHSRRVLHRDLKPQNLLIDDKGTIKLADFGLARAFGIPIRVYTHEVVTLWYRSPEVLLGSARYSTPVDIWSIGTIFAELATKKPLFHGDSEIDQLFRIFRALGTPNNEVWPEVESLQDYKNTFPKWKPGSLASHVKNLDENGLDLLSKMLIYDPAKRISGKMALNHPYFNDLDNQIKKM
CDK1/cyclinB(h), sequence (P14635 whole entry partner): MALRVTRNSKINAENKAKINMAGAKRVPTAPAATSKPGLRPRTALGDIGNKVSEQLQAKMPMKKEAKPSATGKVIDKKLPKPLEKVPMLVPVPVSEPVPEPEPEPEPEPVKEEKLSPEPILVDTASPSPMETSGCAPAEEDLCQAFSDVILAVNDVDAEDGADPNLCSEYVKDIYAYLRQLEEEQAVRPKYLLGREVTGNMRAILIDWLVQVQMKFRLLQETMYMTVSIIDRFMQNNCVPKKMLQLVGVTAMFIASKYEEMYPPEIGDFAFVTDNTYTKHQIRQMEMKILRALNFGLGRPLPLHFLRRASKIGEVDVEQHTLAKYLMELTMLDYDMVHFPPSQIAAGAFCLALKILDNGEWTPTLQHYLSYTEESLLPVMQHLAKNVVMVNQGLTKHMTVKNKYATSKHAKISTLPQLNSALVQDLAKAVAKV
PAK2(h), sequence (Q13177 whole entry): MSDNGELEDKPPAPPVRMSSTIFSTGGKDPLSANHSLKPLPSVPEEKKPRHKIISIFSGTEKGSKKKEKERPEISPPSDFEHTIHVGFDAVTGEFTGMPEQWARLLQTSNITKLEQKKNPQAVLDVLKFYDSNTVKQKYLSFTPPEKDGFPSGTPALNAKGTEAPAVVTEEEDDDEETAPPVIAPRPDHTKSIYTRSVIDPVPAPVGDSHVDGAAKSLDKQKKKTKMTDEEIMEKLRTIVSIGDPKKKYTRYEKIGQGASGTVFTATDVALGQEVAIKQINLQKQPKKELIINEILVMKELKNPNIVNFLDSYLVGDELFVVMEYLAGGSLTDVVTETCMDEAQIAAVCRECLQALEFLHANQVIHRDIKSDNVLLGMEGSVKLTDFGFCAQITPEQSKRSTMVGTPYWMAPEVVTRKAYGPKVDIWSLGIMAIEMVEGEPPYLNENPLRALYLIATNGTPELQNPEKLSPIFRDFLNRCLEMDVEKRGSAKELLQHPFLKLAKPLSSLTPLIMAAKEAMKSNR
Blk(m), sequence (P16277 whole entry): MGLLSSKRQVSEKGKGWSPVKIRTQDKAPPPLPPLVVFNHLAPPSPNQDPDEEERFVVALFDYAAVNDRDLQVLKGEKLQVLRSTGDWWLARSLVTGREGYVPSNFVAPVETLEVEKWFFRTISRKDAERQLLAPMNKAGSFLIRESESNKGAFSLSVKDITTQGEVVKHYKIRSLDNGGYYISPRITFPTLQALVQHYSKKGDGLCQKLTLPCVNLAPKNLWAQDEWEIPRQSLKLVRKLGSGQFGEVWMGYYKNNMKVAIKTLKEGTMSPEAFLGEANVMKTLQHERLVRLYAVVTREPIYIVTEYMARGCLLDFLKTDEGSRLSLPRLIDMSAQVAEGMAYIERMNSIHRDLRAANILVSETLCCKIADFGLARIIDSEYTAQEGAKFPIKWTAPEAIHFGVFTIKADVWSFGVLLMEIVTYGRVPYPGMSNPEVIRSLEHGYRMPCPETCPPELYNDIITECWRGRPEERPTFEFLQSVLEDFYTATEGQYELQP

In the case of `CC(C)Cc1nc(-c2ccc3[nH]nc(-c4ccc5cc(OCCN6CCCC6)ccc5c4)c3c2)n[nH]1` [CC002, 5-(5-Isobutyl-1H-[1,2,4]Triazol-3-yl)-3-[6-(2-Pyrrolidin-1-yl-Ethoxy)-Naphthalen-2-yl]-1H-Indazole], the “Inhibitory activity (% of control), IGF-1R(h)” value at IGF-1R(h) is reported as 55 % of control. Further, on Blk(m), the “Inhibitory activity (% of control), Blk(m)” value is listed as 11 % of control. For the same compound, the “Inhibitory activity (% of control), Rsk1(h)” value at Rsk1(h) is given as 3 % of control. In addition, the “Inhibitory activity (% of control), FGFR3(h)” value at FGFR3(h) is on record as 5 % of control. The “Inhibitory activity (% of control), CDK1/cyclinB(h)” value on CDK1/cyclinB(h) is recorded as 2 % of control. At CK2(h), the “Inhibitory activity (% of control), CK2(h)” value was 41 % of control. In addition, the “Inhibitory activity (% of control), AMPK(r)” value in the assay with AMPK(r) is given as 4 % of control. In addition, at PAK2(h), the “Inhibitory activity (% of control), PAK2(h)” value is 21 % of control.
Turning to `O=C(NC1CCCC1)c1cccc(-c2n[nH]c3ccc(-c4nc[nH]n4)cc23)c1` [CC007, 3-(5-(1H-1,2,4-triazol-3-yl)(1H-indazol-3-yl))phenyl-N-cyclopentylcarboxamide, reference compound], the “Inhibitory activity (% of control), IGF-1R(h)” value at IGF-1R(h) was 88 % of control. Besides, on Blk(m), the “Inhibitory activity (% of control), Blk(m)” value is 76 % of control. Also, the “Inhibitory activity (% of control), Rsk1(h)” value at Rsk1(h) is 51 % of control. Further, the “Inhibitory activity (% of control), FGFR3(h)” value at FGFR3(h) is on record as 54 % of control. In addition, the “Inhibitory activity (% of control), CDK1/cyclinB(h)” value on CDK1/cyclinB(h) was 26 % of control. Also, the “Inhibitory activity (% of control), CK2(h)” value on CK2(h) was 27 % of control. In the assay on AMPK(r), the “Inhibitory activity (% of control), AMPK(r)” value is 74 % of control. Besides, the “Inhibitory activity (% of control), PAK2(h)” value on PAK2(h) is recorded as 86 % of control.
Regarding `Fc1ccc(-c2n[nH]c3ccc(-c4n[nH]c(C5CCCC5)n4)cc23)cc1` [CC006, 5-(5-Cyclopentyl-1H-[1,2,4]triazol-3-yl)-3-(4-fluoro-phenyl)-1H-indazole, reference compound], the “Inhibitory activity (% of control), IGF-1R(h)” value at IGF-1R(h) was 65 % of control. The “Inhibitory activity (% of control), Blk(m)” value on Blk(m) is reported as 60 % of control. In addition, the “Inhibitory activity (% of control), Rsk1(h)” value on Rsk1(h) is 43 % of control. In addition, at FGFR3(h), the “Inhibitory activity (% of control), FGFR3(h)” value was 33 % of control. Besides, the “Inhibitory activity (% of control), CDK1/cyclinB(h)” value on CDK1/cyclinB(h) is 3 % of control. For the same compound, the “Inhibitory activity (% of control), CK2(h)” value on CK2(h) was 50 % of control. Further, the “Inhibitory activity (% of control), AMPK(r)” value with AMPK(r) was 74 % of control. For the same compound, at PAK2(h), the “Inhibitory activity (% of control), PAK2(h)” value is recorded as 56 % of control.
Regarding `COc1ccc2cc(-c3n[nH]c4ccc(-c5n[nH]c(CN6CCOCC6)n5)cc34)ccc2c1` [CC001, 3-(6-Methoxynaphthalen-2-yl)-5-(5-Morpholin-4-Ylmethyl-1H-[1,2,4]Triazol-3-yl)-1H-Indazole], the “Inhibitory activity (% of control), IGF-1R(h)” value on IGF-1R(h) was 92 % of control. The “Inhibitory activity (% of control), Blk(m)” value on Blk(m) was 25 % of control. Also, the “Inhibitory activity (% of control), Rsk1(h)” value at Rsk1(h) is 4 % of control. Also, the “Inhibitory activity (% of control), FGFR3(h)” value at FGFR3(h) was 33 % of control. In addition, the “Inhibitory activity (% of control), CDK1/cyclinB(h)” value on CDK1/cyclinB(h) is on record as 2 % of control. Further, on CK2(h), the “Inhibitory activity (% of control), CK2(h)” value is 45 % of control. In addition, in the assay on AMPK(r), the “Inhibitory activity (% of control), AMPK(r)” value is 52 % of control. The “Inhibitory activity (% of control), PAK2(h)” value on PAK2(h) is 68 % of control.
In the case of `CC(C)(C)Cc1nc(-c2ccc3[nH]nc(-c4ccc5cc(OCc6ccccn6)ccc5c4)c3c2)n[nH]1` [CC004, 5-[5-(2,2-Dimethyl-propyl)-1H-[1,2,4]triazol-3-yl]-3-[6-(pyridine-2-ylmethoxy)-naphthalen-2-yl]-1H-indazole], the “Inhibitory activity (% of control), IGF-1R(h)” value on IGF-1R(h) is reported as 96 % of control. The “Inhibitory activity (% of control), Blk(m)” value on Blk(m) is reported as 43 % of control. For the same compound, at Rsk1(h), the “Inhibitory activity (% of control), Rsk1(h)” value is recorded as 29 % of control. Moreover, the “inhibitory activity against Rsk1, in words” value at Rsk1(h) (summary of Table 2) was “good inhibitory activity”. The “Inhibitory activity (% of control), FGFR3(h)” value on FGFR3(h) is given as 77 % of control. Besides, the “Inhibitory activity (% of control), CDK1/cyclinB(h)” value on CDK1/cyclinB(h) is listed as 1 % of control. Also, the “inhibitory activity against CDK1, in words” value against CDK1/cyclinB(h) (summary of Table 2) is given as “good inhibitory activity”. In addition, on CK2(h), the “Inhibitory activity (% of control), CK2(h)” value is 98 % of control. The “Inhibitory activity (% of control), AMPK(r)” value in the assay with AMPK(r) is 54 % of control. The “Inhibitory activity (% of control), PAK2(h)” value at PAK2(h) is given as 62 % of control.
On to `CCN1CCC[C@H]1COc1ccc2cc(-c3n[nH]c4ccc(-c5nc(CC(C)(C)C)n[nH]5)cc34)ccc2c1` [CC005, 2-[((2s)-1-ethylpyrrolidin-2-yl)methoxy]-6-{5-[3-(2,2-Dimethylpropyl)(1H-1,2,4,-triazol-5-yl)](1H-indazol-3-yl)}naphthalene], for which the “Inhibitory activity (% of control), IGF-1R(h)” value at IGF-1R(h) is on record as 58 % of control. In addition, on Blk(m), the “Inhibitory activity (% of control), Blk(m)” value is reported as 4 % of control. Besides, the “Inhibitory activity (% of control), Rsk1(h)” value at Rsk1(h) is given as 2 % of control. Also, the “Inhibitory activity (% of control), FGFR3(h)” value on FGFR3(h) was 5 % of control. Besides, the “Inhibitory activity (% of control), CDK1/cyclinB(h)” value at CDK1/cyclinB(h) is 1 % of control. For the same compound, the “Inhibitory activity (% of control), CK2(h)” value at CK2(h) is recorded as 74 % of control. Moreover, in the assay on AMPK(r), the “Inhibitory activity (% of control), AMPK(r)” value is 2 % of control. Moreover, the “Inhibitory activity (% of control), PAK2(h)” value on PAK2(h) is on record as 13 % of control.
